Measurements as given in patent US9315459B2, “Crystalline forms of 4-[2-(4-methylphenylsulfanyl)-phenyl] piperidine” (priority 2006, dated 2016).
Counter-ions that a name gives are not always drawn.

Test: Solubility of salts in water, pH of the saturated solution and identity of the precipitate
Type: physicochemical
Details: for Precipitate: precipitate isolated after the solubility determination compared with the compound dissolved; for Solubility in words: summary of table 3; for Formation of hydrates: when precipitated from water; for Resulting pH: pH in the saturated solution of the salt

| Precipitate | SMILES | also measured |
| --- | --- | --- |
| =Start | Cc1ccc(Sc2ccccc2C2CCNCC2)cc1 [HCl, 4-[2-(4-methylphenyl-sulfanyl)phenyl]piperidine hydrochloride addition salt] |  |
| =Start | Cc1ccc(Sc2ccccc2C2CCNCC2)cc1 [Oxalic acid 1:1] |  |
| =Start | Cc1ccc(Sc2ccccc2C2CCNCC2)cc1 [Sebacoinic acid, 1,8-octanedioic acid 2:1] |  |

Continued, compound first:

| SMILES | Precipitate | also measured |
| --- | --- | --- |
| Cc1ccc(Sc2ccccc2C2CCNCC2)cc1 (racemic) | =start (after | Solubility in words: exceptionally high solubility |
| Cc1ccc(Sc2ccccc2C2CCNCC2)cc1 [Adipicacid, 1,6-hexanedioic acid 2:1] | =start |  |
| Cc1ccc(Sc2ccccc2C2CCNCC2)cc1 [Citric acid 2:1] | =Start |  |
| Cc1ccc(Sc2ccccc2C2CCNCC2)cc1 [D-tartaric acid, D-2,3-dihydroxy butanedioic acid 1:1] | Hydrate | Formation of hydrates: do |
| Cc1ccc(Sc2ccccc2C2CCNCC2)cc1 [Fumaric acid 1:1] | =start |  |
| Cc1ccc(Sc2ccccc2C2CCNCC2)cc1 [Glutamic acid 1:1] |  | Solubility in words: exceptionally high solubility |
| Cc1ccc(Sc2ccccc2C2CCNCC2)cc1 [Glutaric acid, 1,5-pentanedioic acid 1:1] | =start | Solubility in words: exceptionally high solubility |
| Cc1ccc(Sc2ccccc2C2CCNCC2)cc1 [HBr, 4-[2-(4-methylphenylsulfanyl)phenyl]piperidine hydrobromide] |  | Resulting pH (hydrobromide): 7.0; Precipitate (hydrobromide): =Start; Formation of hydrates (listed as HBr addition salt, hydrobromide): does not form hydrates |
| Cc1ccc(Sc2ccccc2C2CCNCC2)cc1 [Phosphoric acid 1:1] |  | Resulting pH: 2.0 |
